From patent publication US7662810B2, “2-arylmethylazetidine carbapenem derivatives and preparation thereof” (Korea Research Institute of Chemical Technology, priority 2004, dated 2010)
≈ marks a conversion by molar mass, not a printed value. Where two headings read alike, the source gives them in different places.

Legend:
[1] = Test of Pharmacokinetics in Animals (mice); assay type: in vivo; details: mouse, 40 mg/kg
Protocol: The pharmacokinetics of the carbapenem derivatives of the present invention was determined using mice. […] Standard antibiotic samples were prepared by serial two-fold dilution with control blood. […] PK (pharmacokinetic) change indicators (AUC, Tmax, Cmax and T1/2) of the test compound concentration remaining in the mouse blood over time were assayed over a set period.

[2] = system: Staphylococcus aureus 241; assay: Measurement of Minimum Inhibitory Concentration (MIC), QRS; assay type: cell-based
Procedure, shortened: (§1)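 Minimum inhibitory concentration is the value read after 18 h at 37 °C on Müller-Hinton agar containing serial double dilutions of compound (0.002 to 100 μg/ml final), each spot receiving roughly 10^4 CFU. Meropenem and vancomycin served as reference antibiotics.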

[3] = system: Staphylococcus epidermidis 291; assay: as above; assay type: cell-based; details: QRS, Staphylococcus epidermidis 291
Procedure, shortened: as §1

[4] = system: Staphylococcus aureus 293; assay: as above; assay type: cell-based; details: QRS, Staphylococcus aureus 293
Procedure, shortened: as §1

[5] = system: Staphylococcus epidermidis 178; assay: as above; assay type: cell-based; details: QRS, Staphylococcus epidermidis 178
Procedure, shortened: as §1

Escherichia coli 078 [6] = assay: Determination of Protection Dose (PD50) in Infected Animal Model; assay type: in vivo; details: mice infected intraperitoneally with Escherichia coli 078; compound injected intraperitoneally 1 hour after the infection
Protocol: (§2) In order to get the lethal dose (LD100) of bacteria, […] pyogenes 77A and Escherichia coli 078 were each diluted by 10^2˜10^9 times. […] For a main experiment, 3 to 4 week-old SPF ICR male mice were divided into 4 groups each of 8 to 10 mice, and fasted for 24 hours before a test. The solutions of […] pyogenes 77A and Escherichia coli 078 were concentrated to a level that was 2 to 10 times of LD100, and the concentrated […] pyogenes 77A solution mixed with 10% horse serum and the concentrated Escherichia coli 078 solution mixed with 5% hog gastric mucin were each injected intraperitoneally into the mice of each group to induce whole body infection.
(§3) The serially diluted solutions of the compound of Example 14 or meropenem (5 different concentrations) were injected intraperitoneally into the infected mice 1 hour after the infection. All of the mice in the control group injected with physiological salt solution died within 48 hours. The number of survived mouse in each group injected with antibacterial material, were counted to determine PD50, and the 95% confidence interval thereof was calculated employing Probit method.

[7] = system: Staphylococcus pyogenes 77A; assay: as above; assay type: in vivo; details: mice infected intraperitoneally with Staphylococcus pyogenes 77A; compound injected intraperitoneally 1 hour after the infection
Protocol: as §2, §3

[8] = system: Staphylococcus aureus 693E; assay: Measurement of Minimum Inhibitory Concentration (MIC), MRSA; assay type: cell-based; details: Staphylococcus aureus 693E
Procedure, shortened: as §1

[9] = system: Staphylococcus aureus 256E; assay: as above; assay type: cell-based; details: Staphylococcus aureus 256E
Procedure, shortened: as §1

[10] = system: Staphylococcus aureus 697E; assay: as above; assay type: cell-based; details: Staphylococcus aureus 697E
Procedure, shortened: as §1

[11] = system: Staphylococcus aureus 121E; assay: as above; assay type: cell-based
Procedure, shortened: as §1

[12] = system: Staphylococcus aureus 694E; assay: as above; assay type: cell-based; details: Staphylococcus aureus 694E
Procedure, shortened: as §1

[13] = system: Staphylococcus aureus 208E; assay: as above; assay type: cell-based; details: Staphylococcus aureus 208E
Procedure, shortened: as §1

[14] = system: Staphylococcus aureus 695E; assay: as above; assay type: cell-based; details: Staphylococcus aureus 695E
Procedure, shortened: as §1

[15] = system: Staphylococcus aureus 690E; assay: as above; assay type: cell-based; details: Staphylococcus aureus 690E
Procedure, shortened: as §1

[16] = system: Staphylococcus aureus 692E; assay: as above; assay type: cell-based; details: Staphylococcus aureus 692E
Procedure, shortened: as §1

[17] = system: Staphylococcus aureus 88E; assay: as above; assay type: cell-based
Procedure, shortened: as §1

Escherichia coli TEM = assay: Measurement of Minimum Inhibitory Concentration (MIC); assay type: cell-based
Procedure, shortened: as §1

[18] = system: Enterobacter cloacae 1321 E; assay: as above; assay type: cell-based
Procedure, shortened: as §1

[19] = system: Klebsiella oxytoca 1082 E; assay: as above; assay type: cell-based
Procedure, shortened: as §1

Escherichia coli 078 [20] = assay: as above; assay type: cell-based
Procedure, shortened: as §1

[21] = system: Staphylococcus pyogenes 308A; assay: as above; assay type: cell-based; details: Staphylococcus pyogenes 308A
Procedure, shortened: as §1

[22] = system: Staphylococcus aureus 285; assay: as above; assay type: cell-based
Procedure, shortened: as §1

[23] = system: Staphylococcus aureus 503; assay: as above; assay type: cell-based
Procedure, shortened: as §1

[24] = system: Staphylococcus faecium MD 8b; assay: as above; assay type: cell-based; details: Staphylococcus faecium MD 8b
Procedure, shortened: as §1

[25] = system: Salmonella typhimurium 179; assay: as above; assay type: cell-based; details: Salmonella typhimurium 179
Procedure, shortened: as §1

[26] = system: Enterobacter cloacae P 99; assay: as above; assay type: cell-based
Procedure, shortened: as §1

Escherichia coli DC 0 = assay: as above; assay type: cell-based
Procedure, shortened: as §1

Escherichia coli 1507 E = assay: as above; assay type: cell-based
Procedure, shortened: as §1

[27] = system: Klebsiella aerogenes 1522 E; assay: as above; assay type: cell-based
Procedure, shortened: as §1

Escherichia coli DC 2 = assay: as above; assay type: cell-based
Procedure, shortened: as §1

[28] = system: Staphylococcus pyogenes 77A; assay: as above; assay type: cell-based; details: Staphylococcus pyogenes 77A
Procedure, shortened: as §1

[29] = Staphylococcus aureus, read-out: MIC

COc1ccc(CN2CC(SC3=C(C(=O)[O-])N4C(=O)[C@H]([C@@H](C)O)[C@H]4[C@H]3C)C2)cc1.[K+] [Exam. 14, Potassium(1R,5S,6S)-2-[1-(4-methoxybenzyl)-azetidine-3-yl-thio]-6-[(1R)-1-hydroxylethyl]-1-methylcarbapen-2-em-3-carboxylate]
AUC, times higher than meropenem ([1]; in vivo): 10 to 12 times | increase in T1/2 than meropenem ([1]; in vivo): more than 2 times | AUC (area under blood-medicament concentration curve till 24 hours from administration) ([1]; in vivo, po): 5200 ng·h/mL | Cmax ([1]; in vivo, po): 2070 ng/mL | T1/2 (half time of blood-medicament concentration) ([1]; in vivo, po): 124 min | Tmax ([1]; in vivo, po): 26.4 min | absorption through the oral route ([1]; in vivo, po): absorbed through the oral route to significant extents | AUC (area under blood-medicament concentration curve till 24 hours from administration) ([1]; in vivo, sc): 79660 ng·h/mL | Cmax ([1]; in vivo, sc): 69610 ng/mL | T1/2 (half time of blood-medicament concentration) ([1]; in vivo, sc): 45.6 min | Tmax ([1]; in vivo, sc): 15 min | MIC ([2]; QRS, Staphylococcus aureus 241): 0.049 µg/mL | MIC [3]: 0.391 µg/mL | MIC [4]: 0.098 µg/mL | MIC [5]: 0.391 µg/mL | PD50 (Escherichia coli 078 [6]): 1.44 mg/kg | PD50 [7]: 3.05 mg/kg | MIC [8]: 0.391 µg/mL | MIC [9]: 0.025 µg/mL | MIC [10]: 0.195 µg/mL | MIC ([11]; Staphylococcus aureus 121E): 0.098 µg/mL | MIC [12]: 0.098 µg/mL | MIC [13]: 0.049 µg/mL | MIC [14]: 0.098 µg/mL | MIC [15]: 0.391 µg/mL | MIC [16]: 0.391 µg/mL | MIC ([17]; Staphylococcus aureus 88E): 0.1951 µg/mL | MIC (Escherichia coli TEM; Escherichia coli TEM): 0.195 µg/mL | MIC [18]: 0.098 µg/mL | MIC [19]: 0.098 µg/mL | MIC (Escherichia coli 078 [20]): 0.013 µg/mL | MIC [21]: 0.002 µg/mL | MIC [22]: 0.098 µg/mL | MIC [23]: 0.025 µg/mL | MIC [24]: 1.563 µg/mL | MIC [25]: 0.098 µg/mL | MIC [26]: 0.391 µg/mL | MIC (Escherichia coli DC 0): 0.049 µg/mL | MIC (Escherichia coli 1507 E): 0.098 µg/mL | MIC [27]: 0.195 µg/mL | MIC (Escherichia coli DC 2): 0.049 µg/mL | MIC [28]: 0.002 µg/mL

C[C@@H](O)[C@H]1C(=O)N2C(C(=O)O)=C(S[C@@H]3CN[C@H](C(=O)N(C)C)C3)[C@H](C)[C@H]12 [Meropenem, reference compound]
AUC ([1]; ICR, whole blood, mice, SC, read-out: AUC (area under blood-medicament concentration curve till 24 hours from administration)): 7500 ng·h/mL | Cmax ([1]; ICR, whole blood, mice, SC, read-out: Cmax): 13400 ng/mL | half-life ([1]; ICR, whole blood, mice, SC, read-out: T1/2 (half time of blood-medicament concentration) (converted)): 25.8 min | Tmax ([1]; ICR, whole blood, mice, SC, read-out: Tmax): 19.8 min | MIC ([2]; Staphylococcus aureus, 241): 0.195 µg/mL (≈ 0.509 µM) | MIC ([3]; read-out: MIC): 1.56 µg/mL (≈ 4.08 µM) | MIC ([4]; read-out: MIC): 0.781 µg/mL (≈ 2.04 µM) | MIC ([5]; read-out: MIC): 0.781 µg/mL (≈ 2.04 µM) | PD50 (Escherichia coli 078 [6]): 3.31 mg/kg | PD50 [7]: 9.13 mg/kg | MIC ([8]; read-out: MIC): 6.25 µg/mL (≈ 16.3 µM) | MIC ([9]; read-out: MIC): 0.049 µg/mL (≈ 0.128 µM) | MIC ([10]; read-out: MIC): 0.098 µg/mL (≈ 0.256 µM) | MIC ([11]; Staphylococcus aureus): 0.195 µg/mL (≈ 0.509 µM) | MIC ([12]; read-out: MIC): 6.25 µg/mL (≈ 16.3 µM) | MIC ([13]; read-out: MIC): 0.098 µg/mL (≈ 0.256 µM) | MIC ([14]; read-out: MIC): 0.781 µg/mL (≈ 2.04 µM) | MIC ([15]; read-out: MIC): 3.12 µg/mL (≈ 8.15 µM) | MIC ([16]; read-out: MIC): 0.098 µg/mL (≈ 0.256 µM) | MIC ([17]; Staphylococcus aureus): 0.195 µg/mL (≈ 0.509 µM) | MIC (Escherichia coli TEM; Escherichia coli): 0.025 µg/mL (≈ 0.0652 µM) | MIC ([18]; read-out: MIC): 0.025 µg/mL (≈ 0.0652 µM) | MIC ([19]; read-out: MIC): 0.049 µg/mL (≈ 0.128 µM) | MIC (Escherichia coli 078 [20]; read-out: MIC): 0.025 µg/mL (≈ 0.0652 µM) | MIC [21, 29]: 0.007 µg/mL (≈ 0.0183 µM) | MIC ([22]; read-out: MIC): 0.098 µg/mL (≈ 0.256 µM) | MIC ([23]; read-out: MIC): 0.049 µg/mL (≈ 0.128 µM) | MIC ([24]; MD8B, read-out: MIC): 6.25 µg/mL (≈ 16.3 µM) | MIC ([25]; Salmonella enterica, read-out: MIC): 0.049 µg/mL (≈ 0.128 µM) | MIC ([26]; P99, read-out: MIC): 0.049 µg/mL (≈ 0.128 µM) | MIC (Escherichia coli DC 0; DC0, read-out: MIC): 0.025 µg/mL (≈ 0.0652 µM) | MIC (Escherichia coli 1507 E; read-out: MIC): 0.025 µg/mL (≈ 0.0652 µM) | MIC ([27]; read-out: MIC): 0.049 µg/mL (≈ 0.128 µM) | MIC (Escherichia coli DC 2): 0.025 µg/mL (≈ 0.0652 µM) | MIC [28, 29]: 0.004 µg/mL (≈ 0.0104 µM)
